Usually IC50 stands for the concentration at which inhibition is half-maximal.

Data on 11 compounds can be found in patent publication US10881712B2, “Neuroprotective agents derived from spider venom peptides” (THE UNIVERSITY OF QUEENSLAND, priority 2015, dated 2021).

One assay addresses T1, rASIC1a (Rattus norvegicus, UniProt P55926).
T1 construct: expressed in transfected cells; host or cells: Xenopus laevis oocytes injected with cRNA
T1 sequence (P55926 1-526): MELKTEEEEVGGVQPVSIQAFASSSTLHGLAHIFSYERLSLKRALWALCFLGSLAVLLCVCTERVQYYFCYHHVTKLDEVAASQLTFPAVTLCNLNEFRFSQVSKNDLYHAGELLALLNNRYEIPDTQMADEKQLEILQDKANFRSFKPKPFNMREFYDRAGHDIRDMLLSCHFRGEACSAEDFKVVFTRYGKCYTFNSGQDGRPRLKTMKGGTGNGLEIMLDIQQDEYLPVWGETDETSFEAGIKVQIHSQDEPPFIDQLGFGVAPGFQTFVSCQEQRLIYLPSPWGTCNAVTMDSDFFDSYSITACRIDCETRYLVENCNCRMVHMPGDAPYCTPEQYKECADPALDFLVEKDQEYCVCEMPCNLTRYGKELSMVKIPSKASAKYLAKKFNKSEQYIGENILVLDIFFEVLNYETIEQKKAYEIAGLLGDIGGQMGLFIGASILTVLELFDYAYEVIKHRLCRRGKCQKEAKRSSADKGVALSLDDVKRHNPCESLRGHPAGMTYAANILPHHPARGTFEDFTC
The experiment in a line: Two-electrode voltage clamp (TEVC) on Xenopus laevis oocytes expressing homomeric rASIC1a. Type of assay: cell-based. The following applies: for Extent of inhibition of ASIC1a currents (full or incomplete): at saturating concentrations; for Reversibility of inhibition (in words) / Rapidly reversible inhibition: upon washout; for Rapidly reversible inhibition: Table 1; for % Residual Current: current remaining at saturating peptide concentrations; for Potency compared to wild-type Hi1a (in words): point mutants. As for the experimental part: The ability of the peptides of the invention to modulate ASIC currents was assessed using two-electrode voltage clamp (TEVC) electrophysiology experiments performed on Xenopus laevis oocytes expressing homomeric ASIC channels. Xenopus oocytes are widely used as an expression system for functional characterisation of ion channel modulators. TEVC allows measurement of whole-cell ion channel currents while controlling the membrane potential.
Oocytes were harvested from anaesthetised female X. laevis then defolliculated by treatment with collagenase (Sigma, type I). Oocytes were injected with in vitro transcribed ASIC cRNA (capped RNA). Oocytes were kept at 17-18° C. in ND96 solution containing 96 mM NaCl, 2 mM KCl, 1.8 mM CaCl2, 2 mM MgCl2, 5 mM HEPES, 5 mM pyruvic acid, 50 μg/ml gentamicin (pH 7.4), and fetal horse serum (2.5%), and experiments were performed at room temperature (21-22° C.) 1-3 days after cRNA injection. Oocytes were clamped at −60 mV (Warner OC-725C oocyte clamp; Warner Instruments, CT, USA) using two standard glass microelectrodes of 0.5-2 MΩ resistance when filled with 3 M KCl. Data acquisition and analysis were performed using pCLAMP software, Version 10 (Axon Instruments, CA, USA). Currents were elicited by a drop in pH from 7.45 to 6.0 using a microperfusion system to allow rapid solution exchange. All experiments were performed using ND96 solution spiked with 0.1% BSA in order to minimise adsorption of peptides to plastic tubing.
(In general: Two-electrode voltage clamp holds a large cell at a set potential and records current.)

Assay [1] deals with spontaneously hypertensive rats (SHR). Nature of the assay: Focal reperfusion (endothelin-1) stroke model in conscious SHR, i.c.v. administration. It is filed as in vivo, rat. Conditions: single i.c.v. dose two hours after stroke; Hi1a 2 ng/kg, PcTx1 and mutant 1 ng/kg; 72 h post-stroke. How it is done: The neuroprotective efficacy of Hi1a was assessed in a rat model of focal cerebral ischemia. In vivo experiments were conducted using a focal reperfusion model of stroke in conscious spontaneously hypertensive rats (SHR) as previously reported (McCarthy et al., Neuropharmacology 99, 650-657, 2015). Two 23-gauge stainless steel guide cannulae were stereotaxically implanted into anaesthetised animals (ketamine 75 mg/kg; xylazine 10 mg/kg; intraperitoneal) 5 days prior to stroke induction. The first cannula was implanted 3 mm dorsal to the right middle cerebral artery for stroke induction. The second cannula was implanted into the left lateral ventricle for drug administration. […]
Compared to models of middle cerebral artery occlusion (MCAO) achieved by surgical exposure of the artery, this model has the advantage of minimal surgical intervention in the brain, and the stroke is induced in the absence of anaesthetics, which can confound the results of drug studies (Callaway et al., 1999; Sharkey et al., 1993). Stroke-induced motor deficit was assessed by counting the number of foot faults made while rats traversed a gradually narrowing ledged beam (McCarthy et al., Stroke 40, 1482-1489, 2009). […] For the neurological score, postural abnormalities were assessed by elevating the rat by the tail above a flat surface and grading the severity of thorax twisting and the angle of forelimb extension. […]

The test system of the next assay is ASIC1a. Conditions: McCarthy et al., 2015; cited from earlier work.

Entries after “also recorded” stand apart in the source; their conditions may differ. Bridge positions count the residues as written; N and C are the ends. Ends that are not written are not given here. Peptide text beside a SMILES is read from it. A value given as a limit tells only on which side of the number the result lay.

Regarding `CC[C@H](C)[C@@H]1NC(=O)[C@@H](NC(=O)[C@H](CCC(=O)O)NC(=O)[C@H](CC(N)=O)NC(=O)[C@@H](N)CO)CSSC[C@@H]2NC(=O)[C@@H]3CSSC[C@@H](C(=O)N[C@H](C(=O)N4CCC[C@H]4C(=O)N[C@H](C(=O)N4CCC[C@H]4C(=O)O)[C@@H](C)CC)C(C)C)NC(=O)[C@H](C(C)C)NC(=O)[C@H](CCC(=O)O)NC(=O)[C@H](Cc4ccccc4)NC(=O)[C@H](CO)NC(=O)[C@H](Cc4c[nH]cn4)NC(=O)[C@H](CCCNC(=N)N)NC(=O)[C@H](CCCNC(=N)N)NC(=O)[C@H](CCCCN)NC(=O)[C@H](Cc4ccc(O)cc4)NC(=O)[C@H](CSSC[C@H](NC(=O)[C@H](CO)NC(=O)[C@H](CC(C)C)NC(=O)[C@H](Cc4c[nH]c5ccccc45)NC(=O)[C@H](CCCCN)NC(=O)[C@H](CCCNC(=N)N)NC1=O)C(=O)N[C@@H](C(C)C)C(=O)N[C@@H](CC(=O)O)C(=O)N[C@@H](CCCNC(=N)N)C(=O)N[C@@H](CCCCN)C(=O)N[C@@H](CC(N)=O)C(=O)N[C@@H](CC(=O)O)C(=O)N3)NC(=O)[C@H](CCC(=O)O)NC(=O)[C@H](CC(C)C)NC(=O)CNC(=O)[C@H](CCC(=O)O)NC2=O` [Hi1a_N] (H-SNECIRKWLSCVDRKNDCCEGLECYKRRHSFEVCVPIP-OH; disulfide 4-19, 11-24, 18-34), on rASIC1a, the “Fold lower potency than PcTx1 or full-length Hi1a” value is approximately 1000 fold, the “Extent of inhibition of ASIC1a currents (full or incomplete)” value (from here on “Extent of inhibition of ASIC1a currents”) was “fully inhibit” and the “Reversibility of inhibition (in words)” value is reported as “fully reversible”.

With “Hi1a_C: C-terminal ICK domain of Hi1a expressed separately in E. coli, SEQ ID NO:21 (IPGFCLVKWKQCDGRERDCCAGLECWKRSGNKSSVCAPIT; listed as Hadronyche infensa)”, the Effect on current entry in the assay with rASIC1a (at 1 μM) is given as “minor potentiation”. For the same compound, in the assay with rASIC1a (at 10 μM), the Inhibition result was “negligible inhibition”. The Inhibitory effect entry in the assay with rASIC1a (up to 30 μM) is reported as “no observed inhibitory effect”.

With “PcTx1 mutant iso 2: Double-mutant PcTx1 analogue (R27A/V32A) that is inactive against ASIC1a (EDCIPKWKGCVNRHGDCCEGLECWKRARSFEACVPKTPKT; ends and bridges not checked; cysteine pairing not given here; UniProt P60514 1-40, looked up, variant R27A V32A)”, in assay [1], the “Infarct size in cortical (penumbral) and striatal (core) regions” value is “completely ineffective; also recorded: no effect”. Also, the “Activity against ASIC1a” value in the assay on ASIC1a was “inactive”.

“QECIAKWKSCAGRKLDCCEGLECWKRRWGHEVCVPITQKIFCLEKWKSCFERKYDCCEELECWERRGNKHPVCAPKQ (disulfide 3-18, 10-23, 17-33, 42-57, 49-62, 56-73) [Hi1d]”: on rASIC1a, the Rapidly reversible inhibition entry was “Yes” and the “Extent of inhibition of ASIC1a currents” value is given as “complete”.

For the compound “SEDCIPKWKGCVNRHGDCCEGLECWKRRRSFEVCVPKTEDCIPKWKGCVNRHGDCCEGLECWKRRRSFEVCVPKTPKT (disulfide 4-19, 11-24, 18-34, 41-56, 48-61, 55-71) [EP 1]”, at rASIC1a, the “Fold increase in IC50 (decrease in potency) relative to wild-type Hi1a” value was approximately 200 fold; the midpoint of inhibition, the IC50, lay at 64 nM; the Rapidly reversible inhibition entry is given as “No”; the “Extent of inhibition of ASIC1a currents” value is given as “full inhibition”. On rASIC1a, the “% Residual Current” value came out at 0% and the “Reversibility of inhibition (in words)” value was “slowly reversible”.

Consider “SEDCIPKWKGCVNRHGDCCEGLECWKRRRSFEVCVPKTGDCIPKWKGCVNRHGDCCEGLECWKRRRSFEVCVPKTPKT (disulfide 4-19, 11-24, 18-34, 41-56, 48-61, 55-71) [EP 2]”, for which, on rASIC1a, the “Fold increase in IC50 (decrease in potency) relative to wild-type Hi1a” value was approximately 500 fold, the concentration for half-maximal inhibition (IC50) came out at 215 nM, the Rapidly reversible inhibition entry is “No” and the “Extent of inhibition of ASIC1a currents” value was “full inhibition”. On rASIC1a, the “% Residual Current” value is on record as 0% and the “Reversibility of inhibition (in words)” value is on record as “slowly reversible”.

Take “SEDCIPKWKGCVNRHGDCCEGLECWKRRRSFEVCVPKTPKTIPGFCLVKWKQCDGRERDCCAGLECWKRSGNKSSVCAPIT (disulfide 4-19, 11-24, 18-34, 46-61, 53-66, 60-77) [PcTx1/Hi1a_C]”: on rASIC1a, the “Fold increase in IC50 (decrease in potency) relative to wild-type Hi1a” value came to 3 fold, the half-maximal inhibitory concentration (IC50) stood at 1.3 nM, the Rapidly reversible inhibition result was “No” and the “Extent of inhibition of ASIC1a currents” value was “incomplete inhibition”. At rASIC1a, the “% Residual Current” value is listed as approximately 35% and the “Reversibility of inhibition (in words)” value is on record as “slowly reversible”.

Consider “SNECIRKWKSCVDRKNDCCEGLECYKRRHSFEVCVPIPGFCLVKWKQCDGRERDCCAGLECWKRSGNKSSVCAPIT (disulfide 4-19, 11-24, 18-34, 41-56, 48-61, 55-72) [Hi1a L8K]”, for which, on rASIC1a, the IC50 turned out to be 0.976 nM, the Rapidly reversible inhibition entry was “No”, the “% Residual Current” value turned out to be 30% and the “Potency compared to wild-type Hi1a (in words)” value is given as “little effect”.

Regarding “SNECIRKWLSCVDRKNDCCEGLECWKRRHSFEVCVPIPGFCLVKWKQCDGRERDCCAGLECWKRSGNKSSVCAPIT (disulfide 4-19, 11-24, 18-34, 41-56, 48-61, 55-72) [Hi1a Y24W]”, at rASIC1a, the IC50 was 0.537 nM, the Rapidly reversible inhibition result is recorded as “No”, the “Extent of inhibition of ASIC1a currents” value is “full inhibition” and the “% Residual Current” value came out at 0%.

As for “SNECIRKWLSCVDRKNDCCEGLECYKRRHSFEVCVPGGGGGGFCLVKWKQCDGRERDCCAGLECWKRSGNKSSVCAPIT (disulfide 4-19, 11-24, 18-34, 44-59, 51-64, 58-75) [EP 3]”, at rASIC1a, the half-maximal inhibitory concentration (IC50) was more than 4 nM and the “% Residual Current” value was found to be 80%. The “Inhibition of rASIC1a currents” value at rASIC1a (applied at up to 1 μM) is given as not above 20%.

With “SNECIRKWLSCVDRKNDCCEGLECYKRRRSFEVCVPIPGFCLVKWKQCDGRERDCCAGLECWKRSGNKSSVCAPIT (disulfide 4-19, 11-24, 18-34, 41-56, 48-61, 55-72) [Hi1a H28R]”, at rASIC1a, the IC50 was determined as 0.115 nM, the Rapidly reversible inhibition entry is recorded as “No”, the “% Residual Current” value amounted to 20% and the “Potency compared to wild-type Hi1a (in words)” value is reported as “slightly increased potency”.
